Results taken from the supplement of paper PMC3974653.
Where a name gives a salt, the structure may show the parent alone.

Test system: MTT (mouse pheochromocytoma)
Test: IC50 of cell viability (ATP content)
Conditions: (24 or 48 h)
Procedure, shortened: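 MTT mouse pheochromocytoma cells, cultured overnight at 37°C, 5% CO2 in DMEM with 5% FBS and 1% horse serum, were exposed in white 1536-well plates to library compounds in DMSO at final 0.5 nM to 46 µM (8 concentrations) for 24 or 48 hrs. CellTiter-Glo luminescence was normalised to positive-control (100%) and DMSO (0%) wells. A four-parameter logistic fit gave the IC50.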

Row | SMILES | IC50 of cell viability [µM]
1 | CCOC(=O)[C@H](CCc1ccccc1)N[C@@H](C)C(=O)N1C(=O)N(C)C[C@H]1C(=O)O [IMIDAPRIL HYDROCHLORIDE] | > 46
2 | CCn1ccnc1CC1COc2ccccc2O1 (stereo unspecified) [IMILOXAN] | > 46
3 | CN(C)CCCN1c2ccccc2CCc2ccccc21 [IMIPRAMINE] | > 46
4 | CC(C)=CCOC1=C2OC(=O)\C=C/C2=CC3=C1OC=C3 [IMPERATORIN] | > 46
5 | CC1Cc2ccccc2N1NC(=O)c1ccc(Cl)c([S+](N)(=O)[O-])c1 (stereo unspecified) [INDAPAMIDE] | > 46
6 | O=C1/C(=C2\Nc3ccccc3C2=O)Nc2ccccc21 [INDIGO] | > 46
7 | CC(C)(C)NC(=O)[C@@H]1CN(Cc2cccnc2)CCN1C[C@@H](O)C[C@@H](Cc1ccccc1)C(=O)N[C@H]1c2ccccc2C[C@H]1O [INDINAVIR SULFATE] | > 46
8 | CC1(C)C(/C=C/C=C/C=C/C=C2\N(CCCCS(=O)(=O)[O-])c3ccc4ccccc4c3C2(C)C)=[N+](CCCCS(=O)(=O)[O-])c2ccc3ccccc3c21 [INDOCYANINE GREEN] | > 46
9 | c1ccc2[nH]ccc2c1 [INDOLUM] | > 46
10 | CC(C(=O)O)c1ccc(N2Cc3ccccc3C2=O)cc1 (stereo unspecified) [INDOPROFEN] | > 46
11 | O=C(NC1CCN(CCc2c[nH]c3ccccc23)CC1)c1ccccc1 [INDORAMIN HYDROCHLORIDE] | > 46
12 | OC1C(O)C(O)C(O)C(O)C1O (stereo unspecified) [INOSITOL] | > 46
13 | OC[C@@H]1O[C@](CO)(O[C@H]2O[C@H](CO)[C@@H](O)[C@H](O)[C@H]2O)[C@H](O)[C@H]1O [INULIN (HYDROXYMETHYL, C-14)] | > 46
14 | Cc1c(I)c(=O)n(-c2ccccc2)n1C [IODOANTIPYRINE] | > 46
15 | O=C(O)CNC(=O)c1ccccc1I [IODOHIPPURATE SODIUM, I-123] | > 46
16 | [O-]C(=O)C1=CC=CC=C1C(C2=CC(=C([O-])C(=C2)I)I)=C\3/C=C(I)\C(=O)\C(=C3)I [IODOPHTHALEINUM NATRICUM] | > 46
17 | CCOC(=O)c1ncn2c1CN(C)C(=O)c1c(I)cccc1-2 [IOMAZENIL] | > 46
18 | Cl.Nc1c2c(nc3c1CCC3)CCCC2.O [IPIDACRINE HYDROCHLORIDE HYDRATE] | > 46
19 | CN(C)/C=N/c1c(I)cc(I)c(CCC(=O)O)c1I [IPODATE CALCIUM] | > 46
20 | CC(C)CCCC(C)NC(C)C (stereo unspecified) [IPROHEPTINE HYDROCHLORIDE] | > 46
21 | CC(C)NNC(=O)c1ccncc1.O=[S+]([O-])(O)O [IPRONIAZID SULFATE] | > 46
22 | CC(C)c1ncc([N+](=O)[O-])n1C [IPRONIDAZOLE] | > 46

Row | SMILES | IC50 of cell viability [µM]
23 | CCCCC/1=N/C2(CCCC2)C(=O)N1CC3=CC=C(C=C3)C4=CC=CC=C4C5=NN=N[NH]5 [IRBESARTAN] | > 46
24 | Nc1nc(N)nc(-c2cc(Cl)ccc2Cl)n1 [IRSOGLADINE MALEATE] | > 46
25 | CC(C)NCC(O)COc1ccccc1-n1cccc1 (stereo unspecified) [ISAMOLTANE] | > 46
26 | CC(C)Cn1cnc2c1c(=O)n(C)c(=O)n2C [ISBUFYLLINUM] | > 46
27 | FC(F)OC(Cl)C(F)(F)F (stereo unspecified) [ISOFLURANE] | > 46
28 | CCC(C)[C@@H](N)C(=O)O (stereo partly specified) [ISOLEUCINE] | > 46
29 | CCC(C)C(N)C(=O)O (stereo unspecified) [ISOLEUCINE] | > 46
30 | CC[C@@H](C)C(N)C(=O)O (stereo partly specified) [ISOLEUCINE] | > 46
31 | O=C(NNC[S+](=O)([O-])O)c1ccncc1 [ISONIAZID SODIUM METHANESULFONATE] | > 46
32 | Cc1c(C(C)C)c(=O)n(-c2ccccc2)n1C [ISOPROPYLANTIPYRINE] | > 46
33 | CC(C)NCC(O)c1ccc(O)c(O)c1 (stereo unspecified) [ISOPROTERENOL] | > 46
34 | O=[N+]([O-])O[C@H]1CO[C@H]2[C@@H]1OC[C@H]2O [ISOSORBIDE MONONITRATE] | > 46
35 | O[C@@H]1CO[C@H]2[C@@H]1OC[C@@H]2O [ISOSORBIDE] | > 46
36 | C[C@H](CN1c2ccccc2Sc2cccnc21)N(C)C [ISOTHIPENDYL HYDROCHLORIDE] | > 46
37 | CN1\C(=C(\O)C2=C(C=CC=C2)[S+]1([O-])=O)C(=O)NC3=NOC(=C3)C [ISOXICAM] | > 46
38 | Cc1nnc2n1-c1sc(CCc3ccc(CC(C)C)cc3)cc1C(c1ccccc1Cl)=NC2C (stereo unspecified) [ISRAPAFANT] | > 46
39 | CN1C2CCC1CC(NC(=O)n1c(=O)[nH]c3ccccc31)C2 (stereo unspecified) [ITASETRON HYDROCHLORIDE HYDRATE] | > 46
40 | COc1ccc(C(=O)NCc2ccc(OCCN(C)C)cc2)cc1OC [ITOPRIDE HYDROCHLORIDE] | > 46
41 | COc1cc2c(cc1OC)CC(=O)N(CCCN(C)C[C@H]1Cc3cc(OC)c(OC)cc31)CC2 [IVABRADINE HYDROCHLORIDE] | > 46
42 | CC[C@H](C)[C@H]1O[C@]2(CC[C@@H]1C)C[C@@H]1C[C@@H](C/C=C(\C)[C@H](O[C@@H]3C[C@H](OC)[C@H](O[C@@H]4C[C@H](OC)[C@@H](O)[C@H](C)O4)[C@H](C)O3)[C@@H](C)/C=C/C=C3\CO[C@@H]4[C@H](O)C(C)=C[C@@H](C(=O)O1)[C@]34O)O2 [IVERMECTIN] | > 46
43 | CCC1CC2CC3c4[nH]c5ccc(OC)cc5c4CCN(C2)C13 (stereo unspecified) [Ibogaine] | > 46
44 | CC(C)C(=O)c1c(C(C)C)nn2ccccc12 [Ibudilast] | > 46

Row | SMILES | IC50 of cell viability [µM]
45 | CC(C)Cc1ccc(CC(=O)O)cc1 [Ibufenac] | > 46
46 | CC(C)Cc1ccc(C(C)C(=O)O)cc1 (stereo unspecified) [Ibuprofen] | > 46
47 | CCCCCCCN(CC)CCCC(O)c1ccc(N[S+](C)(=O)[O-])cc1 (stereo unspecified) [Ibutilide] | > 46
48 | COC1=C(OC)C(=O)C(CCCCCCCCCCO)=C(C)C1=O [Idebenone] | > 46
49 | OC[C@@H]1O[C@H](C[C@@H]1O)N2\C=C(\I)C(=O)NC2=O [Idoxuridine] | > 46
50 | O=C(/C=C/c1ccccc1)NCCO [Idrocilamida] | > 46
51 | O=[P@@]1(NCCCl)OCCCN1CCCl [Ifosfamide] | > 46
52 | CCCCCCCCCCCCCCCCSCC(COC)COP(=O)([O-])OCC[N+](C)(C)C (stereo unspecified) [Ilmofosine] | > 46
53 | COc1cc(C(C)=O)ccc1OCCCN1CCC(c2noc3cc(F)ccc23)CC1 [Iloperidone] | > 46
54 | CC#CCC(C)[C@H](O)/C=C/C1[C@H](O)C[C@@H]2C/C(=C\CCCC(=O)O)C[C@H]12 (stereo partly specified) [Iloprost] | > 46
55 | C=CCOC(Cn1ccnc1)c1ccc(Cl)cc1Cl (stereo unspecified) [Imazalil sulphate] | > 46
56 | O=C1CC\C(=N/N1)C2=CC=C(C=C2)[N]3C=CN=C3 [Imazodan] | > 46
57 | O=C(NCNC(=O)NC1C(=O)NC(=O)N1CO)NC1C(=O)NC(=O)N1CO (stereo unspecified) [Imidazolidinyl urea] | > 46
58 | CCC(=O)O.CCC(=O)O.O=C(Nc1cccc(C2=NCCN2)c1)Nc1cccc(C2=NCCN2)c1 [Imidocarbe] | > 46
59 | C[C@H](O)[C@H]1[C@@H]2C\C(=C(/N2C1=O)C(O)=O)SCCNC=N [Imipenem] | > 46
60 | C\C(C)=C\[C@@H]1[C@@H](C(=O)OCN2C(=O)CN(CC#C)C2=O)C1(C)C [Imiprothrin] | > 46
61 | CC(C)Cn1cnc2c(N)nc3ccccc3c21 [Imiquimod] | > 46
62 | C[S+](=O)([O-])OCCC[NH2+]CCCO[S+](C)(=O)[O-] [Improsulfan tosylate] | > 46
63 | c1ccc2c(CCC3CC[NH2+]CC3)c[nH]c2c1 [Indalpine] | > 46
64 | CN[C@@H]1C[C@@H](c2ccc(Cl)c(Cl)c2)c2ccccc21.Cl [Indatraline hydrochloride] | > 46
65 | O=C1/C(=C2\Nc3ccc([S+](=O)([O-])O)cc3C2=O)Nc2ccc([S+](=O)([O-])O)cc21 [Indigo carmine] | > 46
66 | O=C1/C(=C2/Nc3ccc(S(=O)(=O)[O-])cc3C2=O)Nc2ccc(S(=O)(=O)[O-])cc21 [Indigo carmine] | > 46
